According to patent publication US20220204510A1, “2,3-DIHYDRO-1H-PYRROLIZINE-7-FORMAMIDE DERIVATIVE AND APPLICATION THEREOF” (CHIA TAI TIANQING PHARMACEUTICAL GROUP CO., LTD., priority 2018, published 2022):

biological target: T1, CYP3A4 (Homo sapiens, UniProt P08684); assay: Inhibition of human liver microsomal cytochrome P450 isoenzymes; format: in vitro ADME; conditions: human liver microsomes
T1 construct: from tissue; host or cells: human liver microsomes
Protocol: (§1) Experimental objective: to determine the inhibitory effect of the test compound on the activity of human liver microsomal cytochrome P450 isoenzymes (CYP1A2, CYP2C9, CYP2C19, CYP2D6 and CYP3A4). Experimental procedures: first, the test compound (10 mM) was diluted in gradient to prepare working solutions (100× final concentration) at concentrations of: 5, 1.5, 0.5, 0.15, 0.05, 0.015, and 0.005 mM, and working solutions of positive inhibitors for P450 isoenzymes (CYP1A2, CYP2C9, CYP2C19, CYP2D6, and CYP3A4) and the specific substrate mixtures thereof (5 in 1) were prepared simultaneously; human liver microsomes frozen in a−80° C. refrigerator were thawed on ice, and after all thawed, the human liver microsomes were diluted with PB to prepare a working solution at a specific concentration (0.253 mg/mL); 20 μL of the substrate mixture (20 μL of PB was added into the blank well) and 158 μL of the working solution of human liver microsomes were added into the reaction plate which was then placed on ice for use; then 2 μL of the test compound at each concentration (N=1) and a specific inhibitor (N=2) were added into the corresponding well, and the group without the inhibitor (test compound or the positive inhibitor) was added with a corresponding organic solvent as a control sample (the test compound control sample was 1:1 DMSO:MeOH; the positive control sample was 1:9 DMSO:MeOH); after pre-incubation under a 37° C. water bath for 10 min, 20 μL of a coenzyme factor (NADPH) solution was added into the reaction plate and incubated under a 37° C. water bath for 10 min, 400 μL of a cold acetonitrile solution (the internal standard was 200 ng/mL Tolbutamide and Labetalol) was added to terminate the reaction, and the reaction plate was placed on a shaker and shaken for 10 min; after centrifugation at 4,000 rpm for 20 min, 200 μL of the supernatant was collected and added to 100 μL of water to dilute the sample, and, finally, the plate was sealed, oscillated shaken evenly, and subjected to LC/MS/MS detection.

T1 sequence (P08684 whole entry): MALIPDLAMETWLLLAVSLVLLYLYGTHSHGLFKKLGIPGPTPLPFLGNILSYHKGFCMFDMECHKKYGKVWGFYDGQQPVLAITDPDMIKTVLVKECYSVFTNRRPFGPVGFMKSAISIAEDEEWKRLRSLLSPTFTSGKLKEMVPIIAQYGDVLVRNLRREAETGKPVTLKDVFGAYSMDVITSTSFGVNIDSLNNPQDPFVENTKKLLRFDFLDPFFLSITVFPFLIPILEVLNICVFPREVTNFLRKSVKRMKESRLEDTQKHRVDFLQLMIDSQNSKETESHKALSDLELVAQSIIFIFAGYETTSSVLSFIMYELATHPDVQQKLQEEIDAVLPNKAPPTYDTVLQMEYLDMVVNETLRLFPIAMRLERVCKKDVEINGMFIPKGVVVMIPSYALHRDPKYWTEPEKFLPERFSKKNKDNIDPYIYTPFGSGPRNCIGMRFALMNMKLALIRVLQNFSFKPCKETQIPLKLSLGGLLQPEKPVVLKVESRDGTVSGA

| Compound | IC50 [nM] |
| --- | --- |
| CC1(NC(=O)C(=O)c2c(Cl)c(C(=O)Nc3ccc(F)c(F)c3)c3n2CCC3)CCOCC1 [Compound 2] | > 50000 |

biological target: T2, CYP2D6 (Homo sapiens, UniProt P10635); assay: as above; format: in vitro ADME; conditions: human liver microsomes
T2 construct: from tissue; host or cells: human liver microsomes
Protocol: as §1

T2 sequence (P10635 whole entry): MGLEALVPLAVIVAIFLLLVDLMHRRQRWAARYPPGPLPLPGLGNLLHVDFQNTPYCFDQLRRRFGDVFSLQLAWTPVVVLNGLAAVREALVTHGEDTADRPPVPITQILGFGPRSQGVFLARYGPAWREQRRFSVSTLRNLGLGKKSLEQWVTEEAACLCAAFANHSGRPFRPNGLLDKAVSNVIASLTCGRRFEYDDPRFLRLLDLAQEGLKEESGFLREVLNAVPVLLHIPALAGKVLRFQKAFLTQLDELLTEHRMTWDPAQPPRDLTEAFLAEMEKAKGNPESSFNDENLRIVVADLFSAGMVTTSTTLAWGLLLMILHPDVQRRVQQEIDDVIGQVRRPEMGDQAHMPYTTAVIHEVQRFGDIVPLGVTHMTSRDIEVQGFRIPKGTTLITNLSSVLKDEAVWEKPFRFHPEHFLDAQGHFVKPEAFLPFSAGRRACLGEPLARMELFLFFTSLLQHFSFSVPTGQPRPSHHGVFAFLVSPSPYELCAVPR

| Compound | IC50 [nM] |
| --- | --- |
| CC1(NC(=O)C(=O)c2c(Cl)c(C(=O)Nc3ccc(F)c(F)c3)c3n2CCC3)CCOCC1 [Compound 2] | > 50000 |

biological target: T3, CYP2C19 (Homo sapiens, UniProt P33261); assay: as above; format: in vitro ADME; conditions: human liver microsomes
T3 construct: from tissue; host or cells: human liver microsomes
Protocol: as §1

T3 sequence (P33261 whole entry): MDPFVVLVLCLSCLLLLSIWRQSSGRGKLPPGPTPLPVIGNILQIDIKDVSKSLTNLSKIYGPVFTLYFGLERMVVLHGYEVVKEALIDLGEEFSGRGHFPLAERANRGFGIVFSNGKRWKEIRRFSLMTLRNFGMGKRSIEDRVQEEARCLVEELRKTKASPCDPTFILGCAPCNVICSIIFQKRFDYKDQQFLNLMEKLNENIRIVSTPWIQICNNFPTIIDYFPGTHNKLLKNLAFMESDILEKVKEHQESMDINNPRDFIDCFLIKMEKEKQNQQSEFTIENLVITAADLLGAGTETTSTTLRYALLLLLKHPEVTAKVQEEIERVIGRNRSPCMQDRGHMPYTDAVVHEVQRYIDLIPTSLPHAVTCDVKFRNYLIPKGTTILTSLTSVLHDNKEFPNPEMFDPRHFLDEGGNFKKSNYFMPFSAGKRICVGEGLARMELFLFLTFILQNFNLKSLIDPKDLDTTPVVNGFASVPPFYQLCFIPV

| Compound | IC50 [nM] |
| --- | --- |
| CC1(NC(=O)C(=O)c2c(Cl)c(C(=O)Nc3ccc(F)c(F)c3)c3n2CCC3)CCOCC1 [Compound 2] | > 50000 |

biological target: T4, CYP2C9 (Homo sapiens, UniProt P11712); assay: as above; format: in vitro ADME; conditions: human liver microsomes
T4 construct: from tissue; host or cells: human liver microsomes
Protocol: as §1

T4 sequence (P11712 whole entry): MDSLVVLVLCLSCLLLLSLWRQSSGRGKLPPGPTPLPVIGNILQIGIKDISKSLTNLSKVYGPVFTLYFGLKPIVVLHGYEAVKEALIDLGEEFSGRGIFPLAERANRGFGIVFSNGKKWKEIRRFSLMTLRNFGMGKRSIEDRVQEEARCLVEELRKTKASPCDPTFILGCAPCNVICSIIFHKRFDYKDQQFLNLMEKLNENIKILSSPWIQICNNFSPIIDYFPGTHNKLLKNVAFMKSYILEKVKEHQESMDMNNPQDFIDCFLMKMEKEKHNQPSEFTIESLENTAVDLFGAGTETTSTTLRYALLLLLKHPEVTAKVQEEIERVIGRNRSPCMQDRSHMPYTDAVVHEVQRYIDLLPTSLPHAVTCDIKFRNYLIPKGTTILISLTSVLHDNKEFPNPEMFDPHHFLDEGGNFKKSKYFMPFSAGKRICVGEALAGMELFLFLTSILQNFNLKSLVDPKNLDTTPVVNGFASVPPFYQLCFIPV

| Compound | IC50 [nM] |
| --- | --- |
| CC1(NC(=O)C(=O)c2c(Cl)c(C(=O)Nc3ccc(F)c(F)c3)c3n2CCC3)CCOCC1 [Compound 2] | > 50000 |

biological target: T5, CYP1A2 (Homo sapiens, UniProt P05177); assay: as above; format: in vitro ADME; conditions: human liver microsomes
T5 construct: from tissue; host or cells: human liver microsomes
T5 sequence (P05177 1-516): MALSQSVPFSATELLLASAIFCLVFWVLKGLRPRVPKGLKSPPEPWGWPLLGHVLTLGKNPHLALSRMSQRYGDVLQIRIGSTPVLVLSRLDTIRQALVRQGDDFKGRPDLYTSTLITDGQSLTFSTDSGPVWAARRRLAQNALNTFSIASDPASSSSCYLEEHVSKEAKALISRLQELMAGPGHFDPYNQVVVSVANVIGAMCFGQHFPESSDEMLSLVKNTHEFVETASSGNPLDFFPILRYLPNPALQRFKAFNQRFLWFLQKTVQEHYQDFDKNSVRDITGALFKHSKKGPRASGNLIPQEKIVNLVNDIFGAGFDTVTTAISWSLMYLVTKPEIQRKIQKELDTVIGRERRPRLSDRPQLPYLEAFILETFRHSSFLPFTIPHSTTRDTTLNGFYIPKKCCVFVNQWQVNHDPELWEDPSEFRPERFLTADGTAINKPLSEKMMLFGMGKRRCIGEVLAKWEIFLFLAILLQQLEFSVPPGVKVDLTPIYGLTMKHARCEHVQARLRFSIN
Protocol: as §1

| Compound | IC50 [nM] |
| --- | --- |
| CC1(NC(=O)C(=O)c2c(Cl)c(C(=O)Nc3ccc(F)c(F)c3)c3n2CCC3)CCOCC1 [Compound 2] | > 50000 |

tested on: HBV; assay: qPCR test in the HBV in vitro test (HBV DNA in HepG2.2.15 cells); format: cell-based; conditions: Hepatitis B virus, 192 h, HBV DNA in HepG2.2.15 culture medium, day 8, read-out: Half maximal inhibitory concentration (EC50) of HBV
Protocol: To evaluate the inhibitory effect of the compound on HBV by detecting content of HBV DNA in HepG2.2.15 cells in a real-time qPCR test, with EC50 of the compound as an indicator.
3.1. HepG2.2.15 cells (4×10^4 cells/well) were inoculated into a 96-well plate and cultured at 37° C. in 5% CO2 overnight. 3.2. On day 2, the compound was 3-fold diluted in gradient for a total of 8 dilution gradients. The compound at different concentrations was added into the culture wells in duplicate. The final concentration of DMSO in the culture medium was 1%. 1 μM GLS4 was used as a 100% inhibition control (the structure of GLS4 disclosed in WO2008154817A1 is as follows:
1% DMSO was used as a 0% inhibition control. 3.3. On day 5, the culture medium was replaced with a fresh culture medium containing the compound. 3.4. On day 8, the culture medium in the culture wells was collected, and the high-throughput DNA purification kit (Qiagen-51162) was used to extract DNA. For specific steps, refer to the product manual.
3.6. Each well of the 96-well PCR plate was added with 15 μL of the reaction mixture, and then with 10 μL of sample DNA or HBV DNA standard. 3.7. The reaction conditions for PCR: heating at 95° C. for 10 min, degeneration at 95° C. for 15 s, and extension at 60° C. for 1 min, with a total of 40 cycles.
3.8.1. Calculation of the inhibition percentage: % Inh.=[1−(DNA copy number in the sample−DNA copy number in 1 μM GLS4)/(DNA copy number in the DMSO control−DNA copy number in 1 μM GLS4)]×100. 3.8.2. Calculation of EC50: half maximal inhibitory concentration (EC50) of the compound for HBV was calculated using GraphPad Prism software. 3.8.3.

| Compound | EC50 [nM] |
| --- | --- |
| CC1(NC(=O)C(=O)c2cc(C(=O)Nc3ccc(F)c(F)c3)c3n2CCC3)CCOCC1 [Compound 1] | 35 |
| CC1(NC(=O)C(=O)c2c(Cl)c(C(=O)Nc3ccc(F)c(F)c3)c3n2CCC3)CCOCC1 [Compound 2] | 3 |
| Cc1c(C(=O)Nc2ccc(F)c(F)c2)c2n(c1C(=O)C(=O)NC1(C)CCOCC1)CCC2 [Compound 3] | 5 |
| CC1(NC(=O)C(=O)c2c(Cl)c(C(=O)Nc3ccc(F)c(F)c3)c3n2CCC3)CCN(CC(=O)O)CC1 [Compound 4] | 580 |
| CC1(NC(=O)C(=O)c2c(Cl)c(C(=O)Nc3ccc(F)c(C#N)c3)c3n2CCC3)CCOCC1 [Compound 5] | 7 |
| CC1(NC(=O)C(=O)c2cc(C(=O)Nc3ccc(F)c(F)c3)c3n2CCCC3)CCOCC1 [Compound 6] | 110 |
| CC1(NC(=O)C(=O)c2c(Cl)c(C(=O)Nc3ccnc(Cl)c3)c3n2CCC3)CCOCC1 [Compound 7] | 30 |
| CC1(NC(=O)C(=O)c2c(Br)c(C(=O)Nc3ccc(F)c(F)c3)c3n2CCC3)CCOCC1 [Compound 8] | 9 |
| CC1(NC(=O)C(=O)c2c(C(F)(F)F)c(C(=O)Nc3ccc(F)c(F)c3)c3n2CCC3)CCOCC1 [Compound 9] | 41 |
| CC1(NC(=O)C(=O)c2c(Cl)c(C(=O)Nc3cc(F)c(F)c(F)c3)c3n2CCC3)CCOCC1 [Compound 10] | 2 |
| COCC1(NC(=O)C(=O)c2c(Cl)c(C(=O)Nc3ccc(F)c(F)c3)c3n2CCC3)CCOCC1 [Compound 11] | 4 |
| N#CC1(NC(=O)C(=O)c2c(Cl)c(C(=O)Nc3ccc(F)c(F)c3)c3n2CCC3)CCOCC1 [Compound 12] | 5 |
| CC1(NC(=O)C(=O)c2c(Cl)c(C(=O)Nc3ccc(F)c(F)c3)c3n2CCC3)CCC(CC(=O)O)CC1 (stereo not shown) [Compound 13] | 19 |
| C[C@@H](NC(=O)C(=O)c1c(Cl)c(C(=O)Nc2ccnc(Cl)c2)c2n1CCC2)C(F)(F)F [Compound 14] | 70 |
| O=C(NC12CCC(C(=O)O)(CC1)CC2)C(=O)c1c(Cl)c(C(=O)Nc2ccc(F)c(F)c2)c2n1CCC2 [Compound 15] | 37 |
| CC(C)(CCC(=O)O)NC(=O)C(=O)c1c(Cl)c(C(=O)Nc2ccc(F)c(F)c2)c2n1CCC2 [Compound 16] | 41 |
| C[C@]1(NC(=O)C(=O)c2c(Cl)c(C(=O)Nc3ccc(F)c(F)c3)c3n2CCC3)CC[C@H](C(=O)O)CC1 [Compound 19] | 20 |
| C[C@]1(NC(=O)C(=O)c2c(Cl)c(C(=O)Nc3ccc(F)c(F)c3)c3n2CCC3)CC[C@@H](C(=O)O)CC1 [Compound 20] | 11 |
| C[C@]1(NC(=O)C(=O)c2c(Cl)c(C(=O)Nc3ccc(F)c(F)c3)c3n2CCC3)CC[C@@H](CCC(=O)O)CC1 [Compound 21] | 3 |
| C[C@]1(NC(=O)C(=O)c2c(Cl)c(C(=O)Nc3ccc(F)c(F)c3)c3n2CCC3)CC[C@H](CCC(=O)O)CC1 [Compound 22] | 14 |
| CC(C)(CCCC(=O)O)NC(=O)C(=O)c1c(Cl)c(C(=O)Nc2ccc(F)c(F)c2)c2n1CCC2 [Compound 23] | 27 |
| N#CC1(NC(=O)C(=O)c2c(Cl)c(C(=O)Nc3ccc(F)c(F)c3)c3n2CCC3)CCC(CC(=O)O)CC1 (stereo not shown) [Compound 24] | 299 |
| CC(C)(C)OC(=O)C[C@H]1CC[C@](C)(NC(=O)C(=O)c2c(Cl)c(C(=O)Nc3cc(F)c(F)c(F)c3)c3n2CCC3)CC1 [Compound 25-3] | 4 |
| N#CC1(NC(=O)C(=O)c2c(Cl)c(C(=O)Nc3cc(F)c(F)c(F)c3)c3n2CCC3)CCC(CC(=O)O)CC1 (stereo not shown) [Compound 26] | 174 |
| CC(C)(CCCCC(=O)O)NC(=O)C(=O)c1c(Cl)c(C(=O)Nc2cc(F)c(F)c(F)c2)c2n1CCC2 [Compound 27] | 12 |
| O=C(O)CC1CCC(NC(=O)C(=O)c2c(Cl)c(C(=O)Nc3cc(F)c(F)c(F)c3)c3n2CCC3)(C(F)(F)F)CC1 (stereo not shown) [Compound 28] | 2 |
| O=C(O)C[C@H]1CC[C@](NC(=O)C(=O)c2c(Cl)c(C(=O)Nc3cc(F)c(F)c(F)c3)c3n2CCC3)(C(F)(F)F)CC1 [Compound 29] | 3 |
| O=C(O)C[C@H]1CC[C@@](NC(=O)C(=O)c2c(Cl)c(C(=O)Nc3cc(F)c(F)c(F)c3)c3n2CCC3)(C(F)(F)F)CC1 [Compound 30] | 1 |
| COC(=O)C[C@H]1CC[C@](C)(NC(=O)C(=O)c2c(Cl)c(C(=O)Nc3cc(F)c(F)c(F)c3)c3n2CCC3)CC1 [Compound 31] | 5 |
